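In this assay, cells in 96-well plates receive the compound at five concentrations for 48 hours. Endpoints are linearly interpolated between the surrounding concentrations. GI50 = concentration required for 50% inhibition of growth. Definition used: TGI = concentration required for complete inhibition of growth.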
How the values were obtained:
Experiment in all cases: NCI tumour cell line growth inhibition, 48 h
[1] = test system: U251 CNS
[2] = test system: BT-549 breast
[3] = test system: EKVX NSCLC
[4] = test system: SR leukemia
[5] = test system: MDA-MB-231 breast
[6] = test system: OVCAR-5 ovarian
[7] = test system: SF-268 CNS
[8] = test system: NCI/ADR-RES ovarian
[9] = test system: CAKI-1 renal
[10] = test system: IGROV1 ovarian
[11] = test system: OVCAR-3 ovarian
[12] = test system: OVCAR-4 ovarian
[13] = test system: M14 melanoma
[14] = test system: SK-MEL-28 melanoma
[15] = test system: SW-620 colon
[16] = test system: PC-3 prostate
[17] = test system: MOLT-4 leukemia
[18] = test system: MCF7 breast
[19] = test system: HCT-15 colon
[20] = test system: SNB-19 CNS
[21] = test system: HS 578T breast
[22] = test system: ACHN renal
[23] = test system: HOP-62 NSCLC
[24] = test system: SN12C renal
[25] = test system: UACC-62 melanoma
[26] = test system: SF-295 CNS
[27] = test system: SNB-75 CNS
[28] = test system: HCC-2998 colon
[29] = test system: 786-0 renal
[30] = test system: NCI-H226 lung
[31] = test system: A498 renal
[32] = test system: COLO 205 colon
[33] = test system: DU-145 prostate
[34] = test system: CCRF-CEM leukemia
[35] = test system: HOP-92 NSCLC
[36] = test system: A549 NSCLC
[37] = test system: MALME-3M melanoma
[38] = test system: NCI-H23 lung
[39] = test system: NCI-H522 lung
[40] = test system: NCI-H460 lung
[41] = test system: HL-60(TB) leukemia
[42] = test system: RPMI-8226 leukemia
[43] = test system: LOX IMVI melanoma
[44] = test system: K-562 leukemia
[45] = test system: OVCAR-8 ovarian
[46] = test system: SF-539 CNS
[47] = test system: TK-10 renal
[48] = test system: HT29 colon
[49] = test system: SK-MEL-5 melanoma
[50] = test system: RXF 393 renal
[51] = test system: UO-31 renal
[52] = test system: UACC-257 melanoma
[53] = test system: SK-OV-3 ovarian
[54] = test system: HCT-116 colon

COc1ccc(-c2oc3cc(O)cc(O)c3c(=O)c2OC)cc1O
GI50 [1]: 0.631 µM | TGI [1]: 6.05 µM | GI50 [2]: 0.85 µM | TGI [2]: > 16.5 µM | GI50 [3]: 6.42 µM | TGI [3]: > 16.5 µM | GI50 [4]: 0.627 µM | TGI [4]: > 16.5 µM | GI50 [5]: 1.22 µM | TGI [5]: > 16.5 µM | GI50 [6]: 8.69 µM | TGI [6]: > 16.5 µM | GI50 [7]: 1.4 µM | TGI [7]: > 16.5 µM | GI50 [8]: 0.583 µM | TGI [8]: 6.84 µM | GI50 [9]: 3.26 µM | TGI [9]: > 16.5 µM | GI50 [10]: 4.16 µM | TGI [10]: > 16.5 µM | GI50 [11]: 0.49 µM | TGI [11]: 2.62 µM | GI50 [12]: 3.16 µM | TGI [12]: > 16.5 µM | GI50 [13]: 0.509 µM | TGI [13]: > 16.5 µM | GI50 [14]: 1.12 µM | TGI [14]: > 16.5 µM | GI50 [15]: 0.665 µM | TGI [15]: > 16.5 µM | GI50 [16]: 2.74 µM | TGI [16]: > 16.5 µM | GI50 [17]: 0.743 µM | TGI [17]: > 16.5 µM | GI50 [18]: 0.762 µM | TGI [18]: > 16.5 µM | GI50 [19]: 0.749 µM | TGI [19]: > 16.5 µM | GI50 [20]: 1.2 µM | TGI [20]: > 16.5 µM | GI50 [21]: 0.762 µM | TGI [21]: > 16.5 µM | GI50 [22]: 1.25 µM | TGI [22]: > 16.5 µM | GI50 [23]: 0.814 µM | TGI [23]: > 16.5 µM | GI50 [24]: 4.25 µM | TGI [24]: > 16.5 µM | GI50 [25]: 0.88 µM | TGI [25]: > 16.5 µM | GI50 [26]: 2.3 µM | TGI [26]: 8.66 µM | GI50 [27]: 0.406 µM | TGI [27]: 3.45 µM | GI50 [28]: 4.63 µM | TGI [28]: > 16.5 µM | GI50 [29]: 4.87 µM | TGI [29]: > 16.5 µM | GI50 [30]: > 16.5 µM | TGI [30]: > 16.5 µM | GI50 [31]: 3.5 µM | TGI [31]: 14.6 µM | GI50 [32]: > 16.5 µM | TGI [32]: > 16.5 µM | GI50 [33]: 1.1 µM | TGI [33]: > 16.5 µM | GI50 [34]: 0.853 µM | TGI [34]: > 16.5 µM | GI50 [35]: 0.855 µM | TGI [35]: > 16.5 µM | GI50 [36]: 6.27 µM | TGI [36]: > 16.5 µM | GI50 [37]: > 16.5 µM | TGI [37]: > 16.5 µM | GI50 [38]: 0.945 µM | TGI [38]: > 16.5 µM | GI50 [39]: 0.446 µM | TGI [39]: 1.43 µM | GI50 [40]: 0.663 µM | TGI [40]: > 16.5 µM | GI50 [41]: 0.445 µM | TGI [41]: 1.1 µM | GI50 [42]: 0.726 µM | TGI [42]: > 16.5 µM | GI50 [43]: 1.02 µM | TGI [43]: > 16.5 µM | GI50 [44]: 0.613 µM | TGI [44]: > 16.5 µM | GI50 [45]: 1.03 µM | TGI [45]: > 16.5 µM | GI50 [46]: 0.495 µM | TGI [46]: 1.72 µM | GI50 [47]: 7.75 µM | TGI [47]: > 16.5 µM | GI50 [48]: 5.83 µM | TGI [48]: > 16.5 µM | GI50 [49]: 0.724 µM | TGI [49]: > 16.5 µM | GI50 [50]: 1.21 µM | TGI [50]: 5.99 µM | GI50 [51]: 1.86 µM | TGI [51]: > 16.5 µM | GI50 [52]: > 16.5 µM | TGI [52]: > 16.5 µM | GI50 [53]: 1.52 µM | TGI [53]: > 16.5 µM | GI50 [54]: 0.646 µM | TGI [54]: > 16.5 µM
